Test results reported in patent publication US20230339835A1, “2,3,5-TRIMETHYL-6-NONYLCYCLOHEXA-2,5-DIENE-1,4-DIONE FOR SUPPRESSING AND TREATING ALPHA-SYNUCLEINOPATHIES, TAUOPATHIES, AND OTHER DISORDERS” (PTC THERAPEUTICS, INC., priority 2018, published 2023).
pEC50: −log10 of the molar value. Like-named read-outs stand apart in the source and are kept apart here.

Columns and labels:
[1] = Brain and plasma exposure of C9 in mice after oral dosing; assay type: in vivo; settings: mouse, 300 mg/kg PO in sesame oil, C57BL/6 mice
Method: A 300 mg/kg dose of C9 was administered as a sesame oil solution via oral gavage to four C57BL/6 mice. Eight hours after compound administration, plasma and brain exposure were measured (Table 10).

[2] = tested on: AD patient fibroblasts ND41001; test: Rescue of AD patient fibroblasts from BSO plus iron-induced oxidative stress, ND41001; assay type: cell-based; settings: Homo sapiens, Fibroblast
Method: (§1) An initial screen was performed to identify the effectiveness of compounds for the amelioration of PD and AD. Test samples and solvent controls were tested for their ability to rescue PD and AD fibroblasts stressed by addition of L-buthionine-(S,R)-sulfoximine (BSO, a specific inhibitor of GSH synthetase) plus iron (e.g. iron citrate), in a similar manner as that described in Jauslin et al., Hum. Mol. Genet. 11(24):3055 (2002), Jauslin et al., FASEB J. 17:1972-4 (2003), and International Patent Application WO 2004/003565. This specific BSO-mediated cell death was prevented or ameliorated by administration of compounds described herein.
(§2) The AD experiments were performed as follows. PD experiments were performed in a similar manner; certain specific conditions are noted below in Table 1A.
(§3) MEM (a medium enriched in amino acids and vitamins) and Medium 199 (M199) with Earle's Balanced Salts (EBS), without phenol red, were purchased from Invitrogen. Fetal Calf Serum was obtained from Corning. […]
(§4) 100 microliters of Calcein AM (1 microM) in PBS+Ca+Mg was then added to each well. […] After that time fluorescence (excitation/emission wavelengths of 485 nm and 525 nm, respectively) was read on a Spectramax fluorescence reader. Data were analyzed using standard four-parameter curve fit algorithms (XLFit or Prism) to determine the EC50 concentration for each compound.

[3] = Solvent screening for recrystallization (solubility of C9); assay type: physicochemical; settings: for Hot to RT result: allowed to cool to RT; for RT to Cold result: cooled to 0° C.; for Hot Result: heated to approximately 45-50° C.
Method: 100 mg of C9 was placed in test tubes and solvent added and any change noted. Samples were then heated briefly with a heat gun (heating to approximately 45-50° C.), the solubility noted, allowed to cool to RT and solubility noted, then cooled to 0° C. and the solubility noted.

[4] = tested on: AD patient fibroblasts AG04402; test: Rescue of AD patient fibroblasts from BSO plus iron-induced oxidative stress, AG04402; assay type: cell-based; settings: Homo sapiens, Fibroblast
Method: as §1, §2, §3, §4

[5] = tested on: AD patient fibroblasts AG11414; test: Rescue of AD patient fibroblasts from BSO plus iron-induced oxidative stress, AG11414; assay type: cell-based; settings: Homo sapiens, Fibroblast
Method: as §1, §2, §3, §4

[6] = 70% IPA/H2O, approx conc. 100 mg/mL
[7] = 80% EtOH, approx conc. 50 mg/mL
[8] = 80% EtOH, approx conc. 100 mg/mL
[9] = 95% EtOH, approx conc. 100 mg/mL
[10] = Iron citrate (100 μM) + BSO (100 μM)
[11] = Iron citrate (200 μM) + BSO (100 μM)

- Kp at 8 h ([1]; brain and plasma, read-out: Brain:Plasma Ratio): 7
- concentration at 8 h ([1]; brain, read-out: C9 [Brain]): 27900 ng/g
- concentration at 8 h ([1]; plasma, read-out: C9 [Plasma]): 3830 ng/mL
- RT result [3, 6]: slightly
- Hot to RT result [3, 6]: slightly soluble
- RT to Cold result [3, 6]: slightly soluble-
- Hot Result [3, 6]: mostly
- RT result [3, 7]: partially
- Hot to RT result [3, 7]: partially
- RT to Cold result [3, 7]: slightly
- Hot Result [3, 7]: melted
- RT result [3, 8]: partially
- Hot to RT result [3, 8]: partially soluble
- RT to Cold result [3, 8]: slightly soluble
- Hot Result [3, 8]: melted
- RT result [3, 9]: partially
- Hot to RT result [3, 9]: partially soluble
- RT to Cold result [3, 9]: mostly insoluble
- Hot Result [3, 9]: soluble
- RT result ([3]; EtOH, approx conc. 100 mg/mL): partially
- Hot to RT result ([3]; EtOH, approx conc. 100 mg/mL): slightly soluble
- RT to Cold result ([3]; EtOH, approx conc. 100 mg/mL): partially soluble-
- Hot Result ([3]; EtOH, approx conc. 100 mg/mL): soluble
- RT result ([3]; IPA, approx conc. 100 mg/mL): soluble
- Hot to RT result ([3]; IPA, approx conc. 100 mg/mL): soluble
- RT to Cold result ([3]; IPA, approx conc. 100 mg/mL): partially soluble-
- Hot Result ([3]; IPA, approx conc. 100 mg/mL): soluble
- RT result ([3]; MeCN, approx conc. 100 mg/mL): soluble
- Hot to RT result ([3]; MeCN, approx conc. 100 mg/mL): soluble
- RT to Cold result ([3]; MeCN, approx conc. 100 mg/mL): mostly soluble-
- Hot Result ([3]; MeCN, approx conc. 100 mg/mL): soluble
- RT result ([3]; MeOH, approx conc. 100 mg/mL): slightly
- Hot to RT result ([3]; MeOH, approx conc. 100 mg/mL): slightly soluble
- RT to Cold result ([3]; MeOH, approx conc. 100 mg/mL): insoluble-long needles
- Hot Result ([3]; MeOH, approx conc. 100 mg/mL): soluble
- RT result ([3]; THF, approx conc. 100 mg/mL): soluble
- Hot to RT result ([3]; THF, approx conc. 100 mg/mL): soluble
- RT to Cold result ([3]; THF, approx conc. 100 mg/mL): soluble
- Hot Result ([3]; THF, approx conc. 100 mg/mL): soluble
- RT result ([3]; water, approx conc. 10 mg/mL): insoluble
- Hot to RT result ([3]; water, approx conc. 10 mg/mL): insoluble
- RT to Cold result ([3]; water, approx conc. 10 mg/mL): insoluble
- Hot Result ([3]; water, approx conc. 10 mg/mL): insoluble
SMILES: CCCCCCCCCC1=C(C)C(=O)C(C)=C(C)C1=O [Compound C9, 2,3,5-trimethyl-6-nonylcyclohexa-2,5-diene-1,4-dione]
- pEC50 ([2]; Iron citrate (50 μM) + BSO (50 μM)): 7.89
- pEC50 ([2]; Iron citrate (100 μM) + BSO (25 μM)): 7.77
- pEC50 [4, 10]: 8.30
- pEC50 [4, 11]: 7.92
- pEC50 [5, 10]: 7.96
- pEC50 [5, 11]: 7.64
